Laboratory results: patent US9062078B2, “Substituted 7-azabicyles and their use as orexin receptor modulators” (priority 2013, dated 2015)
pKi: −log10 of the molar value.

target: human orexin 2 receptor (Homo sapiens (Human), UniProt O43614); experiment: Human orexin 2 receptor radioligand binding (competitive, [3H]-EMPA, HEK293 cell preparations); settings: hOX2 Ki (nm)
Sequence (O43614 whole entry): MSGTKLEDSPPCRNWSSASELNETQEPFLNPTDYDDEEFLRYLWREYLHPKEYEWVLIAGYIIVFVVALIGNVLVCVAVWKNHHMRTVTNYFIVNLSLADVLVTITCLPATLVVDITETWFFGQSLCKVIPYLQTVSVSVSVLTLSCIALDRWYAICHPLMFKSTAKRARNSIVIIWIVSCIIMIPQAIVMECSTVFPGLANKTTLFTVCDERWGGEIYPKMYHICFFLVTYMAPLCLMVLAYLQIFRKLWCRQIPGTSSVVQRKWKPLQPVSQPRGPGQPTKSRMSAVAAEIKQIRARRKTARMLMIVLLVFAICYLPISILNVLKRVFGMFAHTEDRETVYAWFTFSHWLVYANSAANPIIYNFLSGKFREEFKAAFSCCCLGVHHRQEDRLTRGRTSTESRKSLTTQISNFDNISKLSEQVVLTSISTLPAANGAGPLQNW

SMILES	pKi
Cc1ccc(-n2nccn2)c(C(=O)N2C3CCC2C(COc2ccccn2)C3)n1 (racemic) [Example 4, (±)-(6-methyl-3-(2H-1,2,3-triazol-2-yl)pyridin-2-yl)(2-((pyridin-2-yloxy)methyl)-7-azabicyclo[2.2.1]heptan-7-yl)methanone]	6.03
CCOc1ccccc1C(=O)N1C2CCC1C(COc1nc(C)cc(C)n1)C2 (racemic) [Example 42, (±)-(2-(((4,6-dimethylpyrimidin-2-yl)oxy)methyl)-7-azabicyclo[2.2.1]heptan-7-yl)(2-ethoxyphenyl)methanone]	6.60
CCOc1ccc(C)nc1C(=O)N1C2CCC1C(COc1ccc(C(F)(F)F)cn1)C2 (racemic) [Example 48, (±)-(3-ethoxy-6-methylpyridin-2-yl)(2-(((5-(trifluoromethyl)pyridin-2-yl)oxy)methyl)-7-azabicyclo[2.2.1]heptan-7-yl)methanone]	5.33
CCOc1ccc(C)nc1C(=O)N1C2CCC1C(COc1ccc(Br)cn1)C2 (racemic) [Example 51, (±)-(2-(((5-bromopyridin-2-yl)oxy)methyl)-7-azabicyclo[2.2.1]heptan-7-yl)(3-ethoxy-6-methylpyridin-2-yl)methanone]	5.74
Cc1ccc(-n2nccn2)c(C(=O)N2[C@@H]3CC[C@H]2[C@H](COc2ccccn2)C3)n1 [Example 5A, (6-methyl-3-(2H-1,2,3-triazol-2-yl)pyridin-2-yl)((1S,2R,4R)-2-((pyridin-2-yloxy)methyl)-7-azabicyclo[2.2.1]heptan-7-yl)methanone]	6.37
Cc1ccc(-n2nccn2)c(C(=O)N2C3CCC2C(COc2ccccn2)C3)n1 [Example 6, (6-methyl-3-(2H-1,2,3-triazol-2-yl)pyridin-2-yl)((1S,2R,4R)-2-((pyridin-2-yloxy)methyl)-7-azabicyclo[2.2.1]heptan-7-yl)methanone]	6.37

same assay, conditions: human orexin 2 receptor, [3H]-EMPA competition binding; read-out: hOX2 Ki (nm)

SMILES	pKi
Cc1ccc(-n2nccn2)c(C(=O)N2C3CCC2C(COc2ccc(F)cn2)C3)c1 (racemic) [Example 9, (±)-(2-(((5-fluoropyridin-2-yl)oxy)methyl)-7-azabicyclo[2.2.1]heptan-7-yl)(5-methyl-2-(2H-1,2,3-triazol-2-yl)phenyl)methanone]	7.24
Cc1ccc(-n2nccn2)c(C(=O)N2C3CCC2C(COc2ccc(C(F)(F)F)cn2)C3)n1 (racemic) [Example 47, (±)-(6-methyl-3-(2H-1,2,3-triazol-2-yl)pyridin-2-yl)(2-(((5-(trifluoromethyl)pyridin-2-yl)oxy)methyl)-7-azabicyclo[2.2.1]heptan-7-yl)methanone]	6.38
COc1c(F)cccc1C(=O)N1C2CCC1C(COc1ccc(Br)cn1)C2 (racemic) [Example 50, (±)-(2-(((5-bromopyridin-2-yl)oxy)methyl)-7-azabicyclo[2.2.1]heptan-7-yl)(3-fluoro-2-methoxyphenyl)methanone]	5.36
COc1c(F)cccc1C(=O)N1C2CCC1C(COc1ccc(F)cn1)C2 (racemic) [Example 107, (±)-((3-fluoro-2-methoxyphenyl)(2-(((5-fluoropyridin-2-yl)oxy)methyl)-7-azabicyclo[2.2.1]heptan-7-yl)methanone]	5.66
COc1c(F)cccc1C(=O)N1C2CCC1C(COc1ccc(F)cn1)C2 (racemic) [Example 173, (±)-(3-fluoro-2-methoxyphenyl)(2-(((5-fluoropyridin-2-yl)oxy)methyl)-7-azabicyclo[2.2.1]heptan-7-yl)methanone]	5.52
O=C(c1cc(F)ccc1-c1ncccn1)N1[C@@H]2CC[C@H]1[C@H](COc1ccccn1)C2 [Example 1, (5-fluoro-2-(pyrimidin-2-yl)phenyl)((1S,2R,4R)-2-((pyridin-2-yloxy)methyl)-7-azabicyclo[2.2.1]heptan-7-yl)methanone]	6.56
Cc1ccc(-n2nccn2)c(C(=O)N2[C@@H]3CC[C@H]2[C@H](COc2ccc(F)cn2)C3)c1 [Example 10A, ((1S,2R,4R)-2-(((5-fluoropyridin-2-yl)oxy)methyl)-7-azabicyclo[2.2.1]heptan-7-yl)(5-methyl-2-(2H-1,2,3-triazol-2-yl)phenyl)methanone]	7.49
CCOc1ccc2ccccc2c1C(=O)N1[C@@H]2CC[C@H]1[C@H](Nc1cnc(C(F)(F)F)cn1)C2 [Example 239, (2-ethoxynaphthalen-1-yl)((1S,2R,4R)-2-((5-(trifluoromethyl)pyrazin-2-yl)amino)-7-azabicyclo[2.2.1]heptan-7-yl)methanone]	6.31
CCOc1ncc2ccccc2c1C(=O)N1[C@@H]2CC[C@H]1[C@H](Nc1cnc(C(F)(F)F)cn1)C2 [Example 246, (3-ethoxyisoquinolin-4-yl)((1S,2R,4R)-2-((5-(trifluoromethyl)pyrazin-2-yl)amino)-7-azabicyclo[2.2.1]heptan-7-yl)methanone]	5.99
O=C(c1cccc(F)c1-n1nccn1)N1[C@@H]2CC[C@H]1[C@H](Nc1cnc(C(F)(F)F)cn1)C2 [Example 252, (3-fluoro-2-(2H-1,2,3-triazol-2-yl)phenyl)((1S,2R,4R)-2-((5-(trifluoromethyl)pyrazin-2-yl)amino)-7-azabicyclo[2.2.1]heptan-7-yl)methanone]	5.91
O=C(c1cc(F)ccc1-n1nccn1)N1[C@@H]2CC[C@H]1[C@H](Nc1cnc(C(F)(F)F)cn1)C2 [Example 256, (5-fluoro-2-(2H-1,2,3-triazol-2-yl)phenyl)((1S,2R,4R)-2-((5-(trifluoromethyl)pyrazin-2-yl)amino)-7-azabicyclo[2.2.1]heptan-7-yl)methanone]	5.96
O=C(c1cccc(F)c1-c1cnccn1)N1[C@@H]2CC[C@H]1[C@H](Nc1cnc(C(F)(F)F)cn1)C2 [Example 265, (3-fluoro-2-(pyrazin-2-yl)phenyl)-((1S,2R,4R)-2-((5-(trifluoromethyl)pyrazin-2-yl)amino)-7-azabicyclo[2.2.1]heptan-7-yl)methanone]	6.73
Cc1cccc(C(=O)N2[C@@H]3CC[C@H]2[C@H](Nc2cnc(C(F)(F)F)cn2)C3)c1-c1ncccn1 [Example 273, (3-methyl-2-(pyrimidin-2-yl)phenyl)((1S,2R,4R)-2-((5-(trifluoromethyl)pyrazin-2-yl)amino)-7-azabicyclo[2.2.1]heptan-7-yl)methanone]	6.48
Cc1cccc(C(=O)N2[C@@H]3CC[C@H]2[C@H](Nc2ncc(C(F)(F)F)cn2)C3)c1-c1ncccn1 [Example 281, (3-methyl-2-(pyrimidin-2-yl)phenyl)((1S,2R,4R)-2-((5-(trifluoromethyl)pyrimidin-2-yl)amino)-7-azabicyclo[2.2.1]heptan-7-yl)methanone]	5.92
Cc1cccc(C(=O)N2[C@@H]3CC[C@H]2[C@H](Nc2ncc(C(F)(F)F)cn2)C3)c1-c1ncco1 [Example 283, (3-methyl-2-(oxazol-2-yl)phenyl)((1S,2R,4R)-2-((5-(trifluoromethyl)pyrimidin-2-yl)amino)-7-azabicyclo[2.2.1]heptan-7-yl)methanone]	6.38
COc1cccc(-c2ncccn2)c1C(=O)N1[C@@H]2CC[C@H]1[C@H](Nc1cnc(C(F)(F)F)cn1)C2 [Example 289, (2-methoxy-6-(pyrimidin-2-yl)phenyl)((1S,2R,4R)-2-((5-(trifluoromethyl)pyrazin-2-yl)amino)-7-azabicyclo[2.2.1]heptan-7-yl)methanone]	6.76
O=C(c1c(F)cccc1-c1ncccn1)N1[C@@H]2CC[C@H]1[C@H](Nc1cnc(C(F)(F)F)cn1)C2 [Example 290, (2-fluoro-6-(pyrimidin-2-yl)phenyl)((1S,2R,4R)-2-((5-(trifluoromethyl)pyrazin-2-yl)amino)-7-azabicyclo[2.2.1]heptan-7-yl)methanone]	6.25
CCOc1ccc2cccnc2c1C(=O)N1[C@@H]2CC[C@H]1[C@H](Nc1cnc(C(F)(F)F)cn1)C2 [Example 291, (7-ethoxyquinolin-8-yl)((1S,2R,4R)-2-((5-(trifluoromethyl)pyrazin-2-yl)amino)-7-azabicyclo[2.2.1]heptan-7-yl)methanone]	6.37
Cc1cccc(C(=O)N2[C@@H]3CC[C@H]2[C@H](Nc2ncc(C(F)(F)F)cn2)C3)c1-c1ccccn1 [Example 293, (3-methyl-2-(pyridin-2-yl)phenyl)((1S,2R,4R)-2-((5-(trifluoromethyl)pyrimidin-2-yl)amino)-7-azabicyclo[2.2.1]heptan-7-yl)methanone]	5.96
O=C(c1cccc(F)c1-n1nccn1)N1[C@@H]2CC[C@H]1[C@H](Nc1ccc(C(F)(F)F)cn1)C2 [Example 294, (3-fluoro-2-(2H-1,2,3-triazol-2-yl)phenyl)((1S,2R,4R)-2-((5-(trifluoromethyl)pyridin-2-yl)amino)-7-azabicyclo[2.2.1]heptan-7-yl)methanone]	5.92
Cc1cccc(C(=O)N2[C@@H]3CC[C@H]2[C@H](Nc2ccc(C(F)(F)F)cn2)C3)c1-n1nccn1 [Example 295, (3-methyl-2-(2H-1,2,3-triazol-2-yl)phenyl)((1S,2R,4R)-2-((5-(trifluoromethyl)pyridin-2-yl)amino)-7-azabicyclo[2.2.1]heptan-7-yl)methanone]	6.59
Cc1cccc(C(=O)N2[C@@H]3CC[C@H]2[C@H](Nc2ccc(C(F)(F)F)cn2)C3)c1-c1ncco1 [Example 296, (3-methyl-2-(oxazol-2-yl)phenyl)((1S,2R,4R)-2-((5-(trifluoromethyl)pyridin-2-yl)amino)-7-azabicyclo[2.2.1]heptan-7-yl)methanone]	6.94

same assay, conditions: read-out: hOX2 Ki (nm)

SMILES	pKi
O=C(c1ccccc1-n1nccn1)N1C2CCC1C(Nc1cnc(C(F)(F)F)cn1)C2 (single isomer, unassigned) [Example 183a]	< 5.00
Cc1ccc(-n2nccn2)c(C(=O)N2[C@H]3CC[C@@H]2[C@@H](COc2ccccn2)C3)n1 [Example 5B, (6-methyl-3-(2H-1,2,3-triazol-2-yl)pyridin-2-yl)((1R,2S,4S)-2-((pyridin-2-yloxy)methyl)-7-azabicyclo[2.2.1]heptan-7-yl)methanone]	< 5.00

target: rat orexin 1 receptor (Rattus norvegicus, UniProt P56718); experiment: Rat orexin 1 receptor radioligand binding (competitive, [3H]-SB674042, HEK293 cell preparations); settings: rOX1 Ki (nm)

SMILES	pKi
Cc1ccc(-n2nccn2)c(C(=O)N2C3CCC2C(COc2ccc(C(F)(F)F)cn2)C3)n1 (racemic) [Example 47, (±)-(6-methyl-3-(2H-1,2,3-triazol-2-yl)pyridin-2-yl)(2-(((5-(trifluoromethyl)pyridin-2-yl)oxy)methyl)-7-azabicyclo[2.2.1]heptan-7-yl)methanone]	6.34
CCOc1ccc(C)nc1C(=O)N1C2CCC1C(COc1ccc(Br)cn1)C2 (racemic) [Example 51, (±)-(2-(((5-bromopyridin-2-yl)oxy)methyl)-7-azabicyclo[2.2.1]heptan-7-yl)(3-ethoxy-6-methylpyridin-2-yl)methanone]	6.01

same assay, conditions: rat orexin 1 receptor, [3H]-SB674042 competition binding; read-out: rOX1 Ki (nm)

SMILES	pKi
CCOc1ccc(C)nc1C(=O)N1C2CCC1C(COc1ccc(C(F)(F)F)cn1)C2 (racemic) [Example 48, (±)-(3-ethoxy-6-methylpyridin-2-yl)(2-(((5-(trifluoromethyl)pyridin-2-yl)oxy)methyl)-7-azabicyclo[2.2.1]heptan-7-yl)methanone]	5.41
COc1c(F)cccc1C(=O)N1C2CCC1C(COc1ccc(Br)cn1)C2 (racemic) [Example 50, (±)-(2-(((5-bromopyridin-2-yl)oxy)methyl)-7-azabicyclo[2.2.1]heptan-7-yl)(3-fluoro-2-methoxyphenyl)methanone]	6.34
